The values below come from patent publication US20250100963A1, “SULFONATED AND PHOSPHORYLATED AROMATIC MOLECULES” (Xavier University of Louisiana, priority 2023, published 2025).

In assay [1] the target is T1, CatG (Homo sapiens, UniProt P08311).
T1 sequence (P08311 21-244): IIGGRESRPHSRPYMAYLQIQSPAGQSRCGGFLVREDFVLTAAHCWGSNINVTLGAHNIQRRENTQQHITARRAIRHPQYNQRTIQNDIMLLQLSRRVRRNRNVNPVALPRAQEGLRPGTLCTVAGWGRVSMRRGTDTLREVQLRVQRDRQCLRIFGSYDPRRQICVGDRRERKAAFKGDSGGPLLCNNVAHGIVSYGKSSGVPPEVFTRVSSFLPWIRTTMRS
As to the kind of experiment: Direct inhibition of human CatG, chromogenic substrate hydrolysis assay. Type of assay: biochemical. How it is done:
The method further comprises inhibition of proteases. […] To each well of a 96-well microplate containing 88 μl of 20 mM tris buffer containing 100 mM NaCl, 2.5 mM CaCl2, 0.1% PEG 8000 and 0.05% tween 80 was added 3 μl of CatG (final concentration of 30 nM), and 5 μl of H2O or potential inhibitor (final concentration of 0-100 μM). Following a 5-min incubation, 3 μl of CatG substrate was added (final concentration 750 μM) and the residual CatG activity was obtained from the initial rate of increase of absorbance at 405 nm. The relative residual activity of CatG at each of the inhibitor concentrations was obtained from the ratio of CatG activity in the presence and absence of the inhibitor. Logistic Equation (1) was used to plot the dose-dependence curve to obtain the IC50 (potency) and efficacy of CatG inhibition. Here, Y is the ratio of residual CatG activity in the presence of inhibitor to that in its absence, YO and YM are the minimum and maximum values of fractional residual CatG activity, respectively, IC50 is the concentration of the inhibitor that results in 50% inhibition of CatG activity and HS is the Hill slope.
To each well of a 96-well microplate containing 88 μl of 20 mM tris buffer containing 100 mM NaCl, 2.5 mM CaCl2, 0.1% PEG 8000 and 0.05% tween 80 was added 3 μl of CatG (final concentration of 30 nM), and 5 μl of H2O or potential inhibitor (final concentration of 0-100 μM). Following a 5-min incubation, 3 μl of CatG substrate was added (final concentration 750 μM) and the residual CatG activity was obtained from the initial rate of increase of absorbance at 405 nm. The relative residual activity of CatG at each of the inhibitor concentrations was obtained from the ratio of CatG activity in the presence and absence of the inhibitor. Logistic Equation (1) was used to plot the dose-dependence curve to obtain the IC50 (potency) and efficacy of CatG inhibition. Here, Y is the ratio of residual CatG activity in the presence of inhibitor to that in its absence, YO and YM are the minimum and maximum values of fractional residual CatG activity, respectively, IC50 is the concentration of the inhibitor that results in 50% inhibition of CatG activity and HS is the Hill slope.

For a further assay, the target named is T2, FXa (Homo sapiens, UniProt P00742).
T2 construct: factor Xa (FXa), FXIa, factor XIIa (FXIIa), trypsin and chymotrypsin
As to the kind of experiment: Direct inhibition of FXa, chromogenic substrate hydrolysis assay. Conditions: Tris-HCl buffer. Type of assay: biochemical. The protocol: (§1) Direct inhibitions of thrombin (FIIa), factor VIIa (FVIIa), factor IXa (FIXa), factor Xa (FXa), FXIa, factor XIIa (FXIIa), trypsin and chymotrypsin were evaluated using the corresponding chromogenic substrate hydrolysis assays as previously reported. Briefly, to each well of a 96-well microplate containing 85-185 μl of […] Tris buffer containing 100 mM NaCl, 2.5 mM CaCl2, 0.1% PEG 8000, and 0.05% tween 80 at 25 (thrombin) or 37° C. (FVIIa, FIXa, FXa, FXIa, FXIIa, chymotrypsin, and trypsin) were added 5 μl of enzyme (thrombin, FVIIa, FIXa, FXa, FXIa, FXIIa, chymotrypsin, and trypsin) and 5 μl of the inhibitor. Following an incubation period of 5 min, the appropriate chromogenic substrates (Spectrozyme TH, Spectrozyme FIXa, Spectrozyme FXa, S-2366, Spectrozyme FXIIa and S-2222) were added and the residual enzyme activity was measured from the initial rate of increase in absorbance at 405 nm. Relative residual enzyme activity as a function of the inhibitor concentration was fitted using Logistic Equation (1) to obtain the IC50 (potency), A Y % (efficacy) of enzyme inhibition, and HS (Hill slope). […]

A further assay has as its target Human FXIa (Homo sapiens, UniProt P03951). Briefly: Direct inhibition of FXIa, chromogenic substrate hydrolysis assay. Type of assay: biochemical. Conditions: Tris-HCl buffer. How it is done: Direct inhibitions of thrombin (FIIa), factor VIIa (FVIIa), factor IXa (FIXa), factor Xa (FXa), FXIa, factor XIIa (FXIIa), trypsin and chymotrypsin were evaluated using the corresponding chromogenic substrate hydrolysis assays as previously reported. Briefly, to each well of a 96-well microplate containing 85-185 μl of […] Tris buffer containing 100 mM NaCl, 2.5 mM CaCl2, 0.1% PEG 8000, and 0.05% tween 80 at 25 (thrombin) or 37° C. (FVIIa, FIXa, FXa, FXIa, FXIIa, chymotrypsin, and trypsin) were added 5 μl of enzyme (thrombin, FVIIa, FIXa, FXa, FXIa, FXIIa, chymotrypsin, and trypsin) and 5 μl of the inhibitor. Following an incubation period of 5 min, the appropriate chromogenic substrates (Spectrozyme TH, Spectrozyme FIXa, Spectrozyme FXa, S-2366, Spectrozyme FXIIa and S-2222) were added and the residual enzyme activity was measured from the initial rate of increase in absorbance at 405 nm. Relative residual enzyme activity as a function of the inhibitor concentration was fitted using Logistic Equation (1) to obtain the IC50 (potency), A Y % (efficacy) of enzyme inhibition, and HS (Hill slope). The concentrations of enzymes and substrates in microplate cells were: 6 nM and 50 μM for thrombin; 1.09 nM and 125 μM for FXa; 5 nM and 125 μM for FXIIa; 89 nM and 850 μM for FIXa; 8 nM and 1000 µM for FVIIa (along with 40 nM recombinant tissue factor); 72.5 ng/ml and 80 μM for bovine trypsin; and 500 ng/ml and 240 μM for bovine chymotrypsin.

For the next assay, the target named is Thrombin (human FIIa) (Homo sapiens, UniProt P00734). As to the kind of experiment: Direct inhibition of thrombin, chromogenic substrate hydrolysis assay. Type of assay: biochemical. The settings on record: Tris-HCl buffer; estimated from the highest concentration used. How it is done: as §1
Assay [2] concerns the target T1, CatG. The settings on record: reported; read-out: estimated Ki, allosteric inhibitor; cited from earlier work.
Setting [3] is: Tris buffer pH 7.4, 37° C., 100 mM NaCl, read-out: IC50.

Where two headings read alike, the source gives them in different places.

Human FXIa, sequence (P03951 388-625): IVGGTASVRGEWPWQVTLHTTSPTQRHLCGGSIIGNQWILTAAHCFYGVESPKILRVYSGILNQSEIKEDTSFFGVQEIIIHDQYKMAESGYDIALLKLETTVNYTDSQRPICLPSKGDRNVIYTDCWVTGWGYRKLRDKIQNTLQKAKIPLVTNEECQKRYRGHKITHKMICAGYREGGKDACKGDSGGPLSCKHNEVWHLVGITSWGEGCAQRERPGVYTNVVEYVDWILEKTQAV
Human FXIa, sequence (P03951 19-387 partner): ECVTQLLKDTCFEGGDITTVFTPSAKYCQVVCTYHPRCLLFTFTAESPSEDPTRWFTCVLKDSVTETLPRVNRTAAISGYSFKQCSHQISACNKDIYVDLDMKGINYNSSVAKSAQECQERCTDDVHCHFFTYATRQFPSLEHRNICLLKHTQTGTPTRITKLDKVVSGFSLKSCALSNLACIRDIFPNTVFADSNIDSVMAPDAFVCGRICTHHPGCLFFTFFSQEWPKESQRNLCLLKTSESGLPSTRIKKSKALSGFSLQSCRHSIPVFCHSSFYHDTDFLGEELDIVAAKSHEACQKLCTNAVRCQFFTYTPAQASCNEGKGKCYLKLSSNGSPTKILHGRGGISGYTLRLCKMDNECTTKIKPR
T2 sequence (P00742 235-488): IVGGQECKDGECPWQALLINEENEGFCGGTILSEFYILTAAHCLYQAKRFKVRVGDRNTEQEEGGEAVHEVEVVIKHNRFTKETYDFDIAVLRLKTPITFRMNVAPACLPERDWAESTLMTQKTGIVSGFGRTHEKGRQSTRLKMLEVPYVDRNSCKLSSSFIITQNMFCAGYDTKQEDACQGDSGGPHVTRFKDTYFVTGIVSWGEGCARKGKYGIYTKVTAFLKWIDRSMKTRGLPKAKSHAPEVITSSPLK
T2 sequence (P00742 41-179 partner): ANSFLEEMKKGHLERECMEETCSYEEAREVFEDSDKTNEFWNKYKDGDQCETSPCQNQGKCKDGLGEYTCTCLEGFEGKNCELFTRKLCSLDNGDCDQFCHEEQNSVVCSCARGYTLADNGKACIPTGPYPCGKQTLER

As to `O=C(Nc1cccc(C(=O)Nc2ccc(CP(=O)(O)O)cc2CP(=O)(O)O)c1)Nc1cccc(C(=O)Nc2ccc(CP(=O)(O)O)cc2CP(=O)(O)O)c1` [((((3,3′-(carbonylbis(azanediyl))bis(4-methylbenzoyl))bis(azanediyl))bis(benzene-4,1,3-triyl))tetrakis(methylene))tetrakis(phosphonic acid)], at CatG [1] (Table 6, read-out: CATG IC50), the concentration for half-maximal inhibition (IC50) is 1 to 10 µM.
On to `O=C(Nc1cc(C(=O)Nc2ccc(S(=O)(=O)O)cc2)cc(C(=O)Nc2ccc(S(=O)(=O)O)cc2S(=O)(=O)O)c1)Nc1cc(C(=O)Nc2ccc(S(=O)(=O)O)cc2)cc(C(=O)Nc2ccc(S(=O)(=O)O)cc2S(=O)(=O)O)c1` [4,4′-((3,3′-(carbonylbis(azanediyl))bis(5-((4-sulfophenyl)carbamoyl)benzoyl))bis(azanediyl))bis(benzene-1,3-disulfonic acid)], for which the IC50 on CatG [1] (Table 6, read-out: CATG IC50) lay within 0.5 to 1 µM.
As for `O=C(Nc1cc(C(=O)Nc2ccc(S(=O)(=O)O)cc2)cc(C(=O)Nc2ccc(S(=O)(=O)O)cc2)c1)Nc1cc(C(=O)Nc2ccc(S(=O)(=O)O)cc2)cc(C(=O)Nc2ccc(S(=O)(=O)O)cc2)c1` [Formula I, 4,4′,4″,4″-((5,5′-(carbonylbis(azanediyl))bis(isophthaloyl))tetrakis(azanediyl))tetrabenzenesulfonic acid], the IC50 against FXa was over 100 µM; on Human FXIa, 29.5 ± 4.6 µM; on CatG [1] (Table 6, read-out: CATG IC50) it was 0.83 µM; on CatG [1] (setting [3]) it was 0.083 ± 0.14 µM; on Thrombin (human FIIa), over 100 µM. Also, the “HS (Hill slope)” value on Human FXIa is 1.2 ± 0.2; on CatG [1] (Tris buffer pH 7.4, 37° C.), 1.7 ± 0.4. For the same molecule, the “ΔY (efficacy)” value at Human FXIa turned out to be 90.9 ± 5.8%; on CatG [1] (Tris buffer pH 7.4, 37° C.), 91.9 ± 6.8%.
As for `O=C(Nc1cc(C(=O)Nc2ccccc2S(=O)(=O)O)cc(C(=O)Nc2ccccc2S(=O)(=O)O)c1)Nc1cc(C(=O)Nc2ccccc2S(=O)(=O)O)cc(C(=O)Nc2ccccc2S(=O)(=O)O)c1` [2,2′,2″,2″′-((5,5′-(carbonylbis(azanediyl))bis(isophthaloyl))tetrakis(azanediyl))tetrabenzenesulfonic acid], the IC50 at CatG [1] (Table 6, read-out: CATG IC50) fell in the range of 1 to 5 µM.
In the case of `Cc1ccc(C(=O)Nc2ccc(CP(=O)(O)O)cc2CP(=O)(O)O)cc1NC(=O)c1cccc(NC(=O)Nc2cccc(C(=O)Nc3cc(C(=O)Nc4ccc(CP(=O)(O)O)cc4CP(=O)(O)O)ccc3C)c2)c1` [Formula III, ((((3,3′-((3,3′-(carbonylbis(azanediyl))bis(benzoyl))bis(azanediyl))bis(4-methylbenzoyl))bis(azanediyl))bis(benzene-4,1,3-triyl))tetrakis(methylene))tetrakis(phosphonic acid)], the half-maximal inhibitory concentration (IC50) against FXa was over 100 µM; on CatG [1] (Table 6, read-out: CATG IC50), 3.1 µM; at CatG [1] (setting [3]) it was 3.1 µM; at Thrombin (human FIIa) it was over 500 µM. The “HS (Hill slope)” value on Human FXIa is reported as 1.9 ± 0.5; on CatG [1] (Tris buffer pH 7.4, 37° C.) it was 1.1 ± 0.1. Besides, the “ΔY (efficacy)” value on Human FXIa came to 68.0 ± 3.7%; at CatG [1] (Tris buffer pH 7.4, 37° C.) it was 87.5 ± 1.8%.
On to `Cc1ccc(C(=O)Nc2ccc(CP(=O)(O)O)cc2CP(=O)(O)O)cc1NC(=O)Nc1cc(C(=O)Nc2ccc(CP(=O)(O)O)cc2CP(=O)(O)O)ccc1C` [((((3,3′-(carbonylbis(azanediyl))bis(4-methylbenzoyl))bis(azanediyl))bis(4,1-phenylene))bis(methylene))bis(phosphonic acid)], for which the 50% inhibitory concentration (IC50) at CatG [1] (Table 6, read-out: CATG IC50) lay in the range of 10 to 100 µM.
As for heparin, the Ki on CatG [2] was under 0.025 nM.
As to `O=C(Nc1cccc(C(=O)Nc2cccc(C(=O)Nc3cccc(P(=O)(O)O)c3)c2)c1)Nc1cccc(C(=O)Nc2cccc(C(=O)Nc3cccc(P(=O)(O)O)c3)c2)c1` [(((3,3′-((3,3′-(carbonylbis(azanediyl))bis(benzoyl))bis(azanediyl))bis(benzoyl))bis(azanediyl))bis(3,1-phenylene))bis(phosphonic acid)], at CatG [1] (Table 6, read-out: CATG IC50), the IC50 fell in the range of 1 to 10 µM.
Still for that read-out and setting: the same measure for `Cc1ccc(C(=O)Nc2ccc(CP(=O)(O)O)cc2)cc1NC(=O)c1cccc(NC(=O)Nc2cccc(C(=O)Nc3cc(C(=O)Nc4ccc(CP(=O)(O)O)cc4)ccc3C)c2)c1` [((((3,3′-((3,3′-(carbonylbis(azanediyl))bis(benzoyl))bis(azanediyl))bis(4-methylbenzoyl))bis(azanediyl))bis(4,1-phenylene))bis(methylene))bis(phosphonic acid)]: 10 to 100 µM; for `O=C(Nc1cc(C(=O)Nc2cc(S(=O)(=O)O)ccc2S(=O)(=O)O)cc(C(=O)Nc2cc(S(=O)(=O)O)ccc2S(=O)(=O)O)c1)Nc1cc(C(=O)Nc2cc(S(=O)(=O)O)ccc2S(=O)(=O)O)cc(C(=O)Nc2cc(S(=O)(=O)O)ccc2S(=O)(=O)O)c1` [2,2′,2″,2″′-((5,5′-(carbonylbis(azanediyl))bis(isophthaloyl))tetrakis(azanediyl))tetrakis(benzene-1,4-disulfonic acid)]: 1 to 5 µM.
